Patent US12310975B2, “Modulators of BCL6 proteolysis and associated methods of use” (Arvinas Operations, Inc., priority 2019, dated 2025)
Read-outs that look alike come from different tables or passages of the source.

Biological target: BCL6 (Homo sapiens (Human), UniProt P41182)
Test: Immunofluorescence high content imaging of BCL6 degradation in T47D cells
Assay type: cell-based
Conditions: for DC50: class symbols A-D, read-out: EC50 (nM)*
Procedure: Immunofluorescence Protocol for High Cotent Imaging of BCL6
T47D cells were seeded in 100 μl volume of RPMI1640-10% FBS in a 96-well black/clear bottom plates for adherent lines (Corning #3904).
Day 1. T47D breast cancer epithelial cells were seeded at a density so that confluence is ˜70-90% at endpoint. Cells were seeded at 7K/0.1 ml/well the morning prior to the addition of exemplary bifunctional degradation compounds.
Day 2. Prepare an 11 point 3-fold serial dilution of exemplary bifunctional compound in DMSO and aliquot an appropriate volume to cell growth media to generate a 2× final concentration of exemplary bifunctional compound. Add an equal volume (0.1 ml) of 2× exemplary bifunctional compound/media mix to previously plated cells, for a final top concentration in aqueous cell growth media of 0.1 or 1 μM. Incubate for 3 days at 37° C., 5% CO2.
Day 5 Immunofluorescence. Discard cell media. Wash wells with 200 μl of room temperature phosphate-buffered saline (PBS). Prepared 4% paraformaldehyde (PFA) from 16% PFA (Electron Microscopy Sciences #15710) using 1×PBS. Fifty μl of 4% PF was added to each well and incubate for 15 minutes at room temperature to fix the cells. The PFA was aspirated and the cells washed twice with PBS (200 μl)).
Prepared 0.1% Triton X-100 in PBS using 10% triton X-100 stock. The cells were permeabilized by adding 100 ul of the 0.1% Triton X-100 in PBS to each well to permeabilize cells and incubating at room temperature for 15 minutes. Cells were washed twice with PBS.
Prepared 3% BSA/PBS (from Thermofisher #37515 Blocker BSA in TBS, 10%), and 100 ul was added to each well. The cells were incubated for at least 1 hour at room temperature.
Prepared 1% BSA/PBS using Blocker BSA/PBS, and the 3% BSA/PBS removed from the wells.
For no primary antibody controls, 50 μl 1% BSA/PBS was added.
Primary antibody (BCL6 Rb Ab, CST-14895, Cell Signaling) was diluted 1:300 in 1% BSA/PBS using Blocker BSA/PBS.
Fifty μl of primary antibody added to all remaining wells (i.e., all wells other than the primary antibody controls) and the cells were incubated overnight at 4° C. with slow orbital movement.
Day 6. Contents of the wells was removed and the cells washed four times with 200 ul PBS. 1% BSA/PBS was prepared using Blocker BSA in PBS.
Diluted secondary antibody goat anti-Rb IgG Alexa-488 1:1000, and cell mask-Alexa-647 1:3000 in 1% BSA/PBS in the same mix. Add 50 μl to each well and incubate at room temperature for 1 hour in the dark.
Cells were washed three times with 200 ul PBS, and then incubated for 10 minutes with 100 ul Hoechst dye at 1 μg/mL (20 mM stock) to stain cell nuclei. Wells were then washed with 200 μl PBS, and 100 ul of PBS was added to each well and the plate covered plate with a plastic opaque cover. Plates were stored at 4° C. and covered in aluminum foil until imaged.
Plates were equilibrated to room temperature prior to reading. The bottom of the plate was wiped with 70% isopropanol immediately prior to imaging.
10×, 4 fields/well, include Top hat smoothing in the analysis protocol.

Row | DC50 [nM] | SMILES | further results
1 |  | CNC(=O)COc1cc2cc(Nc3nc(N4CCC(CN5[C@H](C)CN(c6cccc(C(=O)NC7CCC(=O)NC7=O)c6F)C[C@@H]5C)CC4)ncc3Cl)ccc2n(C)c1=O (mixture of isomers) [compound 370, rac-3-[(3R,5S)-4-({1-[5-chloro-4-({1-methyl-3-[(methylcarbamoyl)methoxy]-2-oxo-1,2-dihydroquinolin-6-yl}amino)pyrimidin-2-yl]piperidin-4-yl}methyl)-3,5-dimethylpiperazin-1-yl]-N-(2,6-dioxopiperidin-3-yl)-2-fluorobenzamide] | Dmax (T47D cells): 50 to 70%; IC50 (T47D cells): 10 to 50 nM
2 |  | CNC(=O)COc1cc2cc(Nc3nc(N4CCC(CN5[C@H](C)CN(c6cccc7c6C(=O)N(C6CCC(=O)NC6=O)C7=O)C[C@@H]5C)CC4)ncc3Cl)ccc2n(C(C)C)c1=O (mixture of isomers) [compound 381, rac-2-[(6-{[5-chloro-2-(4-{[(2R,6S)-4-[2-(2,6-dioxopiperidin-3-yl)-1,3-dioxo-2,3-dihydro-1H-isoindol-4-yl]-2,6-dimethylpiperazin-1-yl]methyl}piperidin-1-yl)pyrimidin-4-yl]amino}-2-oxo-1-(propan-2-yl)-1,2-dihydroquinolin-3-yl)oxy]-N-methylacetamide] | Dmax (T47D cells): 50 to 70%; IC50 (T47D cells): < 10 nM
3 |  | CNC(=O)COc1cc2cc(Nc3nc(N4CCN(CC5CCN(c6ccc7c(c6)C(=O)N(C6CCC(=O)NC6=O)C7=O)CC5)CC4)ncc3Cl)ccc2n(C(C)C)c1=O (stereo not shown) [Exemplary Compound 263, 2-[[6-([5-chloro-2-[4-([1-[2-(2,6-dioxopiperidin-3-yl)-1,3-dioxoisoindol-5-yl]piperidin-4-yl]methyl)piperazin-1-yl]pyrimidin-4-yl]amino)-1-isopropyl-2-oxoquinolin-3-yl]oxy]-N-methylacetamide] | IC50: 10 to 50 nM; Dmax (T47D): 50 to 70%
4 | > 100 | CNC(=O)COc1cc2cc(Nc3nc(N4CCC(OCCOCCOCCOc5cc(-c6scnc6C)ccc5CNC(=O)[C@@H]5C[C@@H](O)CN5C(=O)[C@H](c5cc(C)no5)C(C)C)CC4)ncc3Cl)ccc2n(C)c1=O [compound 49, (2S,4R)-N-(2-(2-(2-(2-((1-(5-chloro-4-((1-methyl-3-(2-(methylamino)-2-oxoethoxy)-2-oxo-1,2-dihydroquinolin-6-yl)amino)pyrimidin-2-yl)piperidin-4-yl)oxy)ethoxy)ethoxy)ethoxy)-4-(4-methylthiazol-5-yl)benzyl)-4-hydroxy-1-((S)-3-methyl-2-(3-methylisoxazol-5-yl)butanoyl)pyrrolidine-2-carboxamide] | 
5 | > 100 | CNC(=O)COc1cc2cc(Nc3nc(N4CCC(OCCOCCOCCOc5cc(-c6scnc6C)ccc5CNC(=O)[C@@H]5C[C@@H](O)CN5C(=O)[C@@H](c5cc(C)no5)C(C)C)CC4)ncc3Cl)ccc2n(C)c1=O [compound 50, (2S,4R)-N-(2-(2-(2-(2-((1-(5-chloro-4-((1-methyl-3-(2-(methylamino)-2-oxoethoxy)-2-oxo-1,2-dihydroquinolin-6-yl)amino)pyrimidin-2-yl)piperidin-4-yl)oxy)ethoxy)ethoxy)ethoxy)-4-(4-methylthiazol-5-yl)benzyl)-4-hydroxy-1-((R)-3-methyl-2-(3-methylisoxazol-5-yl)butanoyl)pyrrolidine-2-carboxamide] | 
6 | > 100 | CNC(=O)COc1cc2cc(Nc3nc(N4CCC(OCCOCCOCCOCC(=O)N[C@H](C(=O)N5C[C@H](O)C[C@H]5C(=O)NCc5ccc(-c6scnc6C)cc5)C(C)(C)C)CC4)ncc3Cl)ccc2n(C)c1=O [compound 51, (2S,4R)-1-((S)-2-(tert-butyl)-14-((1-(5-chloro-4-((1-methyl-3-(2-(methylamino)-2-oxoethoxy)-2-oxo-1,2-dihydroquinolin-6-yl)amino)pyrimidin-2-yl)piperidin-4-yl)oxy)-4-oxo-6,9,12-trioxa-3-azatetradecanoyl)-4-hydroxy-N-(4-(4-methylthiazol-5-yl)benzyl)pyrrolidine-2-carboxamide] | 
7 | 50 to 100 | CNC(=O)COc1cc2cc(Nc3nc(N4CCC(OCCOCCOCCOc5ccc6c(c5)C(=O)N(C5CCC(=O)NC5=O)C6=O)CC4)ncc3Cl)ccc2n(C)c1=O (stereo not shown) [compound 52, 2-((6-((5-chloro-2-(4-(2-(2-(2-((2-(2,6-dioxopiperidin-3-yl)-1,3-dioxoisoindolin-5-yl)oxy)ethoxy)ethoxy)ethoxy)piperidin-1-yl)pyrimidin-4-yl)amino)-1-methyl-2-oxo-1,2-dihydroquinolin-3-yl)oxy)-N-methylacetamide] | 
8 | > 100 | CNC(=O)COc1cc2cc(Nc3nc(N4CCC(OCCOCCOc5cc(-c6scnc6C)ccc5CNC(=O)[C@@H]5C[C@@H](O)CN5C(=O)C(c5cc(C)no5)C(C)C)CC4)ncc3Cl)ccc2n(C)c1=O (stereo partly drawn) [compound 53, (2S,4R)-N-(2-(2-(2-((1-(5-chloro-4-((1-methyl-3-(2-(methylamino)-2-oxoethoxy)-2-oxo-1,2-dihydroquinolin-6-yl)amino)pyrimidin-2-yl)piperidin-4-yl)oxy)ethoxy)ethoxy)-4-(4-methylthiazol-5-yl)benzyl)-4-hydroxy-1-(3-methyl-2-(3-methylisoxazol-5-yl)butanoyl)pyrrolidine-2-carboxamide] | 
9 | > 100 | CNC(=O)COc1cc2cc(Nc3nc(N4CCC(OCCOCCOCCOCCOc5cc(-c6scnc6C)ccc5CNC(=O)[C@@H]5C[C@@H](O)CN5C(=O)C(c5cc(C)no5)C(C)C)CC4)ncc3Cl)ccc2n(C)c1=O (stereo partly drawn) [compound 54, (2S,4R)-N-(2-(2-(2-(2-(2-((1-(5-chloro-4-((1-methyl-3-(2-(methylamino)-2-oxoethoxy)-2-oxo-1,2-dihydroquinolin-6-yl)amino)pyrimidin-2-yl)piperidin-4-yl)oxy)ethoxy)ethoxy)ethoxy)ethoxy)-4-(4-methylthiazol-5-yl)benzyl)-4-hydroxy-1-(3-methyl-2-(3-methylisoxazol-5-yl)butanoyl)pyrrolidine-2-carboxamide] | 
10 | > 100 | CNC(=O)COc1cc2cc(Nc3nc(N4CCC(OCCOCCOCCOCCOCCOc5cc(-c6scnc6C)ccc5CNC(=O)[C@@H]5C[C@@H](O)CN5C(=O)C(c5cc(C)no5)C(C)C)CC4)ncc3Cl)ccc2n(C)c1=O (stereo partly shown) [compound 55] | 
11 | > 100 | CNC(=O)COc1cc2cc(Nc3nc(N4CCC(OCCOc5cc(-c6scnc6C)ccc5CNC(=O)[C@@H]5C[C@@H](O)CN5C(=O)C(c5cc(C)no5)C(C)C)CC4)ncc3Cl)ccc2n(C)c1=O (stereo partly drawn) [compound 56, (2S,4R)—N-(2-(2-((1-(5-chloro-4-((1-methyl-3-(2-(methylamino)-2-oxoethoxy)-2-oxo-1,2-dihydroquinolin-6-yl)amino)pyrimidin-2-yl)piperidin-4-yl)oxy)ethoxy)-4-(4-methylthiazol-5-yl)benzyl)-4-hydroxy-1-(3-methyl-2-(3-methylisoxazol-5-yl)butanoyl)pyrrolidine-2-carboxamide] | 
12 | > 100 | CNC(=O)COc1cc2cc(Nc3nc(N4CCC(OCCOCCOCCNc5cccc6c5C(=O)N(C5CCC(=O)NC5=O)C6=O)CC4)ncc3Cl)ccc2n(C)c1=O (stereo not shown) [compound 57, 2-((6-((5-chloro-2-(4-(2-(2-(2-((2-(2,6-dioxopiperidin-3-yl)-1,3-dioxoisoindolin-4-yl)amino)ethoxy)ethoxy)ethoxy)piperidin-1-yl)pyrimidin-4-yl)amino)-1-methyl-2-oxo-1,2-dihydroquinolin-3-yl)oxy)-N-methylacetamide] | 
13 | > 100 | CNC(=O)COc1cc2cc(Nc3nc(N4CCC(OCCOCCOCCOCCOCCOCCOc5cc(-c6scnc6C)ccc5CNC(=O)[C@@H]5C[C@@H](O)CN5C(=O)C(c5cc(C)no5)C(C)C)CC4)ncc3Cl)ccc2n(C)c1=O (stereo partly drawn) [compound 58, (2S,4R)-N-(2-((17-((1-(5-chloro-4-((1-methyl-3-(2-(methylamino)-2-oxoethoxy)-2-oxo-1,2-dihydroquinolin-6-yl)amino)pyrimidin-2-yl)piperidin-4-yl)oxy)-3,6,9,12,15-pentaoxaheptadecyl)oxy)-4-(4-methylthiazol-5-yl)benzyl)-4-hydroxy-1-(3-methyl-2-(3-methylisoxazol-5-yl)butanoyl)pyrrolidine-2-carboxamide] | 
